We go through 13 molecules from ChEMBL document CHEMBL1129144, “Stereoselective synthesis and biological activity of cis azetidinones as cholesterol absorption inhibitors” (1996).

Assay type in all cases: functional
In assay [1] the test system is Cricetinae gen. sp. Briefly: Compound was tested for cholesterol reduction in liver in the cholesterol-fed hamster model after oral administration.
The test system of assay [2] is Cricetinae gen. sp. Briefly: Compound was tested for % inhibition of cholesterol in the cholesterol-fed hamster model after oral administration at a dose of 10 mg/kg/day.
Assay [3] deals with Cricetinae gen. sp. The experiment in a line: Compound was tested for % inhibition of cholesterol in the cholesterol-fed hamster model after oral administration at a dose of 3 mg/kg/day.
Assay [4] has as its system Cricetinae gen. sp. The experiment in a line: Compound was tested for % inhibition of cholesterol in the cholesterol-fed hamster model after oral administration at a dose of 100 mg/kg/day.
Assay [5] deals with Cricetinae gen. sp. The experiment in a line: Compound was tested for % inhibition of cholesterol in the cholesterol-fed hamster model after oral administration at a dose of 25 mg/kg/day.
In assay [6] the test system is Cricetinae gen. sp. The experiment in a line: Compound was tested for cholesterol inhibition in the cholesterol-fed hamster model after oral administration.

In general, ED50 refers to the dose that gives a 50% effect, or the effect in half of the subjects. The low end stands for an effect at a small dose, the high end for a need for a large dose. Turning to `COc1ccc([C@@H]2[C@H]([C@H](O)CCc3ccccc3)C(=O)N2c2ccccc2)cc1`, the 50% effect level in the assay with Cricetinae gen. sp. [1] (ED50) was put at a dose of 0.4 mg/kg/day.

With `COc1ccc([C@@H]2[C@@H]([C@H](O)CCc3ccccc3)C(=O)N2c2ccccc2)cc1`, in the assay on Cricetinae gen. sp. [1], it took a dose of 1.2 mg/kg/day to reach the 50% effect level (ED50).

In turn, `COc1ccc([C@@H]2[C@@H]([C@@H](O)CCc3ccccc3)C(=O)N2c2ccccc2)cc1` showed a median effective dose (ED50) in the assay on Cricetinae gen. sp. [1] of 8.6 mg/kg/day.

On to `COc1ccc([C@H]2[C@H]([C@H](O)CCc3ccccc3)C(=O)N2c2ccccc2)cc1`, for which the Reduction in the assay on Cricetinae gen. sp. [2] is reported as 38%.

Turning to `COc1ccc([C@@H]2[C@@H](CCCc3ccccc3)C(=O)N2c2ccccc2)cc1`, the ED50 with Cricetinae gen. sp. [1] came out at 0.54 mg/kg/day.

In the assay with Cricetinae gen. sp. [2], `COc1ccc([C@H]2[C@@H]([C@H](O)CCc3ccccc3)C(=O)N2c2ccccc2)cc1` yielded a Reduction of 0%.

Consider `COc1ccc([C@@H]2[C@H]([C@@H](O)CCc3ccccc3)C(=O)N2c2ccccc2)cc1`, for which the Reduction with Cricetinae gen. sp. [3] is 0%.

Take `COc1ccc([C@H]2[C@@H](CCCc3ccccc3)C(=O)N2c2ccccc2)cc1`: in the assay on Cricetinae gen. sp. [4], the Reduction came to 0%.

Take `COc1ccc([C@H]2[C@H](CCCc3ccccc3)C(=O)N2c2ccccc2)cc1`: the Reduction with Cricetinae gen. sp. [5] is on record as 0%.

For `COc1ccc(C2N(c3ccc(OC)cc3)C(=O)[C@]23CC[C@H](c2ccccc2)CC3)cc1` (stereo partly drawn), it took a dose of 3 mg/kg to reach the 50% effect level in the assay on Cricetinae gen. sp. [6] (ED50).

`COc1ccc([C@H]2[C@H]([C@@H](O)CCc3ccccc3)C(=O)N2c2ccccc2)cc1` had a Reduction in the assay on Cricetinae gen. sp. [2] of 0%.

In the assay with Cricetinae gen. sp. [2], `COc1ccc([C@H]2[C@@H]([C@@H](O)CCc3ccccc3)C(=O)N2c2ccccc2)cc1` displayed a Reduction of 22%.

Take `COc1ccc([C@@H]2[C@H](CCCc3ccccc3)C(=O)N2c2ccccc2)cc1`: the ED50 with Cricetinae gen. sp. [1] amounted to 4 mg/kg/day.
